Laboratory results published in patent US10330673B2, “Fluorescent chemical sensor for biological amines” (The Curators of the University of Missouri, priority 2013, dated 2019).

How the values were obtained:
[1] = sensor of U.S. Pat. No. 7,977,120 B2; quenched by catechol group; cited from earlier work
[2] = Fluorescence titration of sensor with glutamate; assay type: binding; conditions: for F.E. / Ka: Table 2, analyte glutamate; for Ka: pH 5.0, 37° C.
Procedure: (§1) Fluorescence spectra were recorded on a Shimadzu RF-5301 PC spectrofluorometer at 37° C. A 1 mg/mL stock solution of I-2 in DMSO was prepared. A stock solution of I-2 in buffer (1×10^−5 M, 25 mM HEPES, 50 mM Na2S2O3, pH=5.0) was prepared. Norepinephrine, dopamine, epinephrine, and glutamate stock solutions were prepared by separately dissolving the analytes at the concentration to be used in the titration with the buffered stock solution of I-2 (thus avoiding dilution of I-2 during the experiment). I-2 was titrated with aliquots of analyte solution. The sensor was excited at 488 nm with slit widths of 5 nm.
(§2) Fluorescence spectra were recorded on a Shimadzu RF-5301 PC spectrofluorometer at 37° C. A separate 1 mg/mL stock solution of each coumarin-3-aldehyde derivative in DMSO was prepared. An aqueous stock solution of each derivative (10 μM) in buffer (25 mM HEPES, 50 mM Na2S2O3, pH=5.0) was prepared. Norepinephrine, dopamine, glutamate, and epinephrine stock solutions were prepared by separately dissolving the solid analytes at the concentration to be used in the titration with the buffered stock solutions described above and thus, avoiding dilution of the sensor during the experiment. The benzene-based NS521 derivatives were excited at 488 nm. The thiophene-based derivatives were excited at 515 nm.

[3] = Fluorescence titration of sensor with dopamine; assay type: binding; conditions: Table 2, analyte dopamine; for Ka: pH 5.0, 37° C.
Procedure: as §1, §2

[4] = Fluorescence titration of sensor with norepinephrine; assay type: binding; conditions: Table 2, analyte norepinephrine; for Ka: pH 5.0, 37° C.
Procedure: as §1, §2

[5] = Solubility in buffer for spectroscopic studies; assay type: physicochemical; conditions: 25 mM HEPES, 50 mM Na2S2O3, pH 5.0; DMSO cosolvent required
Procedure: Steady-state fluorescence spectroscopic studies were performed using a Horiba Scientific Fluorolog-3 Model FL3C-111 spectrofluorometer and data was collected and analyzed using HJY FluorEssence™ 3.5.1.20 software package. UV-visible spectra were obtained on a Varian Cary 1E UV-visible spectrophotometer. A stock solution of each benzene- or thiophene-based coumarin-3-aldehyde derivative (1 μM) in buffer (25 mM HEPES, 50 mM Na2S2O3, pH=5.0) was prepared. Each solution contained 1% (v/v) DMSO as a cosolvent except as noted. The slit width was 2 nm for both excitation and emission. The bound benzene- and thiophene-coumarin-3-aldehyde derivatives contained 500 mM glutamate (pH=5.0).

[6] = system: epinephrine-enriched chromaffin cells; assay: Live-cell confocal imaging with NS539, epinephrine-enriched cells; assay type: cell-based, bovine; conditions: 10 μM
Procedure: (§3) Norepinephrine- and epinephrine-secreting chromaffin cells were isolated from bovine adrenal glands, separately incubated with NS539 (2b, 10 μM), and imaged using confocal fluorescence microscopy. The live cells were imaged at 458 nm which would excite any potential unbound sensor and at 514 nm which would excite the bound sensor. […] The ratio of the mean corrected total cell fluorescence intensity of norepinephrine- over epinephrine-enriched cells was approximately 27-fold (FIG. 19G).
(§4) Chromaffin cells were prepared as previously described. Approximately 3 mL of each culture media containing suspended epinephrine- and norepinephrine-enriched cells was centrifuged at 1,000 rpm for 5 min. The pellets were suspended in 2 mL Dulbecco's Modified Eagle Medium (DMEM). NS539 was added (10 μM final concentration) and each cell suspension containing sensor incubated at 37° C. for 30 min. The cells were centrifuged, the supernatant removed, and washed twice with PBS buffer. Next, the cells were taken up into 6 mL standard cell bath solution and plated onto No. 1.5 γ-irradiated poly-D-lysine coated 35 mm glass-bottom dishes (MatTek Corporation). The cells incubated on the dishes 37° C. with 5% CO2 for 1 hr prior to imaging to promote adhesion. Live cell imaging studies were performed using a Zeiss LSM 510 META laser scanning confocal microscope (Carl Zeiss Microscopy, LLC) equipped with a C-Apochromat 63x/1.2 water immersion objective lens (Carl Zeiss Microscopy, LLC). The excitation wavelengths were 458 nm and 514 nm (pixel time: 6.4 μs, detector gain: 845, amplifier gain: 1.00, amplifier offset: −0.05, pinhole: 328 μm). Image acquisition was performed using Zeiss AIM 4.2 software package (Carl Zeiss Microscopy, LLC). To compare the fluorescence intensities of the norepinephrine- vs. the epinephrine-enriched cells, the mean corrected total cell fluorescence intensities were obtained using ImageJ (National Institute of Health).

[7] = system: norepinephrine-enriched chromaffin cells; assay: Live-cell confocal imaging with NS539, norepinephrine-enriched cells; assay type: cell-based, bovine; conditions: 10 μM
Procedure: as §3, §4

[8] = 1.0 μM in water (pH 7); fluorescence standard; cited from earlier work
[9] = benzene-based compounds I, excited at 488 nm
[10] = excitation at 514 nm (bound sensor)
[11] = ± standard deviation (n=6), 535-590 nm bandpass filter
[12] = thiophene-based compounds II, excited at 515 nm

Compound	F.E. [2, 9]	Ka [2, 9] [M⁻¹]	F.E. [3, 9]	Ka [3, 9] [M⁻¹]	F.E. [4, 9]	Ka [4, 9] [M⁻¹]	other results
CCN(CC)c1ccc2c(CCCCCN(C)Cc3ccccc3B(O)O)c(C=O)c(=O)oc2c1 ['120 sensor]	–	–	–	–	–	–	mode of fluorescence response [1]: turn-off mode
CCN(CC)c1ccc2c(-c3ccccc3)c(C=O)c(=O)oc2c1 [Compound I-1]	10.45	9.43	3.23	68.07	6.62	68.68	–
CCN(CC)c1ccc2c(-c3ccc(OC)c(OC)c3)c(C=O)c(=O)oc2c1 [Compound I-3]	6.56	10.21	2.69	177.46	4.11	107.17	–
CCN(CC)c1ccc2c(-c3cc(OC)c(OC)c(OC)c3)c(C=O)c(=O)oc2c1 [Compound I-4]	5.57	10.25	1.62	205.13	2.56	159.08	selectivity of fluorescent response for glutamate over dopamine and norepinephrine ([2]; series 1 sensors, in words): best glutamate-selective sensor
CCN(CC)c1ccc2c(-c3cccc(C)c3)c(C=O)c(=O)oc2c1 [Compound I-5]	9.97	9.17	3.17	74.13	6.59	68.40	–
CCN(CC)c1ccc2c(-c3ccc(OC)c(C)c3)c(C=O)c(=O)oc2c1 [Compound I-6]	6.36	10.25	2.41	192.05	3.89	135.98	–
CCOC(=O)c1ccc(-c2c(C=O)c(=O)oc3cc(N(CC)CC)ccc23)cc1 [Compound I-7]	4.68	6.95	1.13	107.45	1.79	81.50	solubility in buffer [5]: solubility issues
CCN(CC)c1ccc2c(-c3ccc(OC)c(F)c3)c(C=O)c(=O)oc2c1 [Compound I-8]	9.31	8.96	3.06	92.94	6.36	70.18	–
CCN(CC)c1ccc2c(-c3ccc(-c4ccccc4)cc3)c(C=O)c(=O)oc2c1 [Compound I-9]	6.22	13.84	1.62	203.29	2.57	148.79	solubility in buffer [5]: solubility issues
CCN(CC)c1ccc2c(-c3cccc4ccccc34)c(C=O)c(=O)oc2c1 [Compound I-10]	6.81	10.08	2.86	170.10	4.30	103.56	–
CCN(CC)c1ccc2c(-c3ccc(SC)cc3)c(C=O)c(=O)oc2c1 [Compound I-11]	9.76	8.40	3.10	87.11	6.46	68.82	–
CCN(CC)c1ccc2c(-c3cccs3)c(C=O)c(=O)oc2c1 [II-1]	–	–	–	–	–	–	cell fluorescence, confocal microscopy ([6]; excitation at 458 nm (unbound sensor)): no fluorescence; cell fluorescence, confocal microscopy [6, 10]: marginal fluorescence response; mean corrected total cell fluorescence intensity [6, 11]: 1.86±0.98; F.E. [2, 12]: 57.17; Ka [2, 12]: 7.32 M⁻¹; ratio of mean corrected total cell fluorescence intensity of norepinephrine- over epinephrine-enriched cells [7]: approximately 27 fold; cell fluorescence, confocal microscopy [7, 10]: strong punctate fluorescence; mean corrected total cell fluorescence intensity [7, 11]: 51.0±2.6; cell fluorescence, confocal microscopy ([7]; λex = 458 nm (unbound sensor)): no measurable fluorescence response; F.E. [3, 12]: 25.42; Ka [3, 12]: 43.55 M⁻¹; F.E. [4, 12]: 47.95; Ka [4, 12]: 65.15 M⁻¹
CCN(CC)c1ccc2c(-c3ccc(C)s3)c(C=O)c(=O)oc2c1 [II-2]	–	–	–	–	–	–	F.E. [2, 12]: 47.67; Ka [2, 12]: 6.11 M⁻¹; F.E. [3, 12]: 22.18; Ka [3, 12]: 54.61 M⁻¹; F.E. [4, 12]: 32.35; Ka [4, 12]: 58.72 M⁻¹
CCN(CC)c1ccc2c(-c3cc(C)cs3)c(C=O)c(=O)oc2c1 [II-3]	–	–	–	–	–	–	F.E. [2, 12]: 51.15; Ka [2, 12]: 7.40 M⁻¹; F.E. [3, 12]: 23.41; Ka [3, 12]: 51.10 M⁻¹; F.E. [4, 12]: 38.35; Ka [4, 12]: 63.65 M⁻¹
CCN(CC)c1ccc2c(-c3ccc(Cl)s3)c(C=O)c(=O)oc2c1 [II-4]	–	–	–	–	–	–	F.E. [2, 12]: 33.96; Ka [2, 12]: 5.90 M⁻¹; F.E. [3, 12]: 12.39; Ka [3, 12]: 83.96 M⁻¹; F.E. [4, 12]: 20.78; Ka [4, 12]: 69.25 M⁻¹
CCN(CC)c1ccc2c(-c3cc4ccccc4s3)c(C=O)c(=O)oc2c1 [II-5]	–	–	–	–	–	–	F.E. [2, 12]: 29.65; Ka [2, 12]: 5.25 M⁻¹; F.E. [3, 12]: 9.53; Ka [3, 12]: 49.26 M⁻¹; F.E. [4, 12]: 16.62; Ka [4, 12]: 49.65 M⁻¹
CCN(CC)c1ccc2c(-c3ccccc3C(=O)O)c3ccc(=[N+](CC)CC)cc-3oc2c1.[Cl-] [rhodamine B]	–	–	–	–	–	–	absolute Φfl [8]: 0.31
